# Experimental data as given in patent US9605029B2, “Antibody-binding peptide” (NATIONAL INSTITUTE OF ADVANCED INDUSTRIAL SCIENCE AND …, priority 2013, dated 2017).
# Tested on: Fc region (Jackson ImmunoResearch Laboratories, Inc.) labeled with horseradish peroxidase (HRP)
# Assay: ELISA of recombinant phages displaying polypeptides (Example 2, 6)
# Assay type: binding, human
# Details: recombinant T7 phage displaying the polypeptide; absorbance at 415 nm; control 0.098
# Protocol: 6) In this section, it will be stated as an example that the binding activity of recombinant phages transformed by nucleic acids encoding amino acid sequences represented by SEQ ID NOs: 26, 27, 30 to 55, 57, 63 to 72 and 79 to 81 was measured by Enzyme Linked Immuno-Sorbent Assay (ELISA).
# DNA molecules encoding amino acid sequences of SEQ ID NOs: 26, 27, 30 to 55, 57, 63 to 72 and 79 to 81 were amplified by a polymerase chain reaction (PCR) using KOD DNA polymerase (TOYOBO) under the reaction conditions according to the accompanying manual. Each of the amplified DNA was digested with restriction enzymes EcoRI and HindIII, and ligated to the 3′ terminal of g10 gene on T7 phage genomic DNA. Ligation to T7 phage genomic DNA was performed by use of a sample attached to T7Select10-3 Cloning Kit (Novagen) under the reaction conditions and in accordance with the procedure described in T7Select (registered trade mark) System Manual. Using T7 phage genomic DNA ligated, T7 phage was packaged in a test tube by T7Select Packaging Kit (Novagen) under the reaction conditions in accordance with T7Select (registered trade mark) System Manual (Novagen). Subsequently, phage plaque was formed in accordance with T7Select (registered trade mark) System Manual (Novagen). From each of the plaques, a recombinant phage displaying the polypeptide was isolated. To MICROTEST (registered trade mark) 96 (BECTON, DICKINSON AND COMPANY), a culture solution (0.2 mL) of Escherichia coli BL5403 strain cultured in LB medium until O.D.600 reached 1.0 was poured to infect with the Escherichia coli cells each of the recombinant phages isolated from plaques and allowed to stand still 37° C. for 12 hours to proliferate phages. The culture solution (10 μL) containing these phages was diluted in 90 μL of TBS buffer (50 mM Tris-HCl, 150 mM NaCl, pH 7.4) to prepare measurement samples.
# The measurement samples were poured to MEDISORP 96 well microplate (Nunc) and allowed to stand still for one hour to allow the phage to physically adsorb to the plate. The supernatant was removed and SuperBlock (registered trade mark) T20 (TBS) Blocking Buffer (Thermo […]) (150 μL) was poured to the plate and allowed to stand still for one hour to block the surface of the plate. The plate was washed three times with TBS-T buffer (50 mM Tris-HCl, 150 mM NaCl, 0.1% Tween 20 (registered trade mark), pH 7.4). To the plate, TBS-T buffer (100 μL) containing an Fc region (Jackson ImmunoResearch Laboratories, Inc.) (0.2 μg/mL) labeled with horseradish peroxidase (HRP) was added and allowed to stand still for one hour. After the plate was washed three times with TBS-T buffer, ABTS One Component HRP Microwell Substrate (BioFX) (100 μL) was poured to the plate. The binding activity was detected through a […]. The absorbance at 415 nm (O.D.415) was measured by a microplate absorbance reader Sunrise R (TECAN GROUP LTD.). TBS-T buffer containing no phages was used as a negative control in a control experiment.
# ELISA results of the recombinant phages displaying polypeptides containing amino acid sequences represented by SEQ ID NOs: 26, 27 and 30 to 55 and the recombinant phages displaying polypeptides containing amino acid sequences represented by SEQ ID NOs: 57, 63 to 72 and 79 to 81 are shown in Table 5A and Table 5B, respectively.
row,O.D. 415,Substance
1,0.213,"64 (IPYGFPGRGEYDPETGTWYDAAWHLGELVWATYYDPETGTWEPDWQRMLGQ; IgG binding peptide, p4) [compound 64]"
2,0.182,"66 (WPLNAPSSAFYDPETGTWYDAAWHLGELVWATYYDPETGTWEPDWQRMLGQ; IgG binding peptide, p13) [compound 66]"
3,0.25,"67 (VPPRFSSSAQYDPETGTWYDAAWHLGELVWATYYDPETGTWEPDWQRMLGQ; IgG binding peptide, p14) [compound 67]"
4,0.189,"70 (WMEFYPGRGVYDPETGTWYDAAWHLGELVWATYYDPETGTWEPDWQRMLGQ; IgG binding peptide, p26) [compound 70]"
5,0.215,"80 (LIPPGGISPWYDPETGTWYDAAWHLGELVWATYYDPETGTWEPDWQRMLGQ; IgG binding peptide, p25_2) [compound 80]"

# Second part, the substance before the results:
row,Substance,O.D. 415
1,"57 (GPGISAFSPGRGVYDPETGTWYDAAWHLGELVWATYYDPETGTWEPDWQRMLGQ; IgG binding peptide, p17) [compound 57]",0.229
2,"63 (SNFVRSPSAWYDPETGTWYDAAWHLGELVWATYYDPETGTWEPDWQRMLGQ; IgG binding peptide, p2_2) [compound 63]",0.272
3,"65 (GPYNIPDSAVYDPETGTWYDAAWHLGELVWATYYDPETGTWEPDWQRMLGQ; IgG binding peptide, p5) [compound 65]",0.291
4,"68 (FLVGLHAGAVYDPETGTWYDAAWHLGELVWATYYDPETGTWEPDWQRMLGQ; IgG binding peptide, p15_2) [compound 68]",0.186
5,"69 (VVRVDHSSAVYDPETGTWYDAAWHLGELVWATYYDPETGTWEPDWQRMLGQ; IgG binding peptide, p20) [compound 69]",0.201
6,"71 (DGVGPGSRGVYDPETGTWYDAAWHLGELVWATYYDPETGTWEPDWQRMLGQ; IgG binding peptide, p27) [compound 71]",0.219
7,"72 (FVSSLPNSAMYDPETGTWYDAAWHLGELVWATYYDPETGTWEPDWQRMLGQ; IgG binding peptide, p28) [compound 72]",0.229
8,"79 (GSCKFSSSCHYDPETGTWYDAAWHLGELVWATYYDPETGTWEPDWQRMLGQ; IgG binding peptide, p24_2) [compound 79]",0.329
9,"81 (LNDFLTPTAWYDPETGTWYDAAWHLGELVWATYYDPETGTWLPDWQTMAQK; IgG binding peptide, p31) [compound 81]",0.235

# Same assay, conditions: recombinant T7 phage displaying the polypeptide; absorbance at 415 nm; control 0.11
row,O.D. 415,Substance
1,0.289,"27 (DAAWHLGELVWATYYDPETGTWEPDWQRMLGQ; IgG binding peptide, pep24) [compound 27]"
2,0.287,"30 (DAAWHLGELVWATYYDPETGTWEPDWKLMQRP; IgG binding peptide, pep7) [compound 30]"
3,0.305,"33 (DAAWHLGELVWATYYDPETGTWVPDWERMKQH; IgG binding peptide, pep31) [compound 33]"
4,0.251,"40 (DAAWHLGELVWATYYDPETGTWQPDWKRMTSR; IgG binding peptide, pep10) [compound 40]"
5,0.243,"46 (DAAWHLGELVWATYYDPETGTWLPDWSQMRPQ; IgG binding peptide, pep18) [compound 46]"
6,0.255,"47 (DAAWHLGELVWATYYDPETGTWLPDWDTMTPR; IgG binding peptide, pep19) [compound 47]"
7,0.346,"49 (DAAWHLGELVWATYYDPETGTWVPDWDTMHAAINRSFREV; Artificial Sequence, pep22; IgG binding peptide) [compound 49]"
8,0.244,"50 (DAAWHLGELVWATYYDPETGTWIPDWRAMSQF; IgG binding peptide, pep23) [compound 50]"
9,0.279,"53 (DAAWHLGELVWATYYDPETGTWKPDWQVMSPVSNRSFREV; IgG binding peptide, pep29) [compound 53]"

# Continued, substance first:
row,Substance,O.D. 415
1,"26 (DAAWHLGELVWATYYDPETGTWLPDWQTMAQK; IgG binding peptide, pep21) [compound 26]",0.43
2,"31 (DAAWHLGELVWATYYDPETGTWQPDWDIMAGH; IgG binding peptide, pep25) [compound 31]",0.295
3,"32 (DAAWHLGELVWATYYDPETGTWLPDWDVMVRQ; IgG binding peptide, pep27) [compound 32]",0.352
4,"34 (DAAWHLGELVWATYYDPETGTWEPDWSKMRPQ; IgG binding peptide, pep1) [compound 34]",0.281
5,"35 (DAAWHLGELVWATYYDPETGTWRPDWAVMATP; IgG binding peptide, pep2) [compound 35]",0.32
6,"36 (DAAWHLGELVWATYYDPETGTWKPDWRMMGVP; IgG binding peptide, pep3) [compound 36]",0.287
7,"37 (DAAWHLGELVWATYYDPETGTWLPDWDYMSSK; IgG binding peptide, pep4) [compound 37]",0.235
8,"38 (DAAWHLGELVWATYYDPETGTWMPDWDRMLRR; IgG binding peptide, pep5) [compound 38]",0.29
9,"39 (DAAWHLGELVWATYYDPETGTWTPDWNAMSQR; IgG binding peptide, pep6) [compound 39]",0.273
10,"41 (DAAWHLGELVWATYYDPETGTWQPDWGRMNSK; IgG binding peptide, pep12) [compound 41]",0.274
11,"42 (DAAWHLGELVWATYYDPETGTWAPDWNRMRDFNRSFREV; IgG binding peptide, pep29) [compound 42]",0.273
12,"43 (DAAWHLGELVWATYYDPETGTWVPDWDAMSSR; IgG binding peptide, pep15) [compound 43]",0.813
13,"44 (DAAWHLGELVWATYYDPETGTWIPDWTRMQTW; IgG binding peptide, pep16) [compound 44]",0.243
14,"45 (DAAWHLGELVWATYYDPETGTWKPDWQRMKLH; IgG binding peptide, pep17) [compound 45]",0.249
15,"48 (DAAWHLGELVWATYYDPETGTWQPDWSVMKSL; IgG binding peptide, pep20) [compound 48]",0.373
16,"51 (DAAWHLGELVWATYYDPETGTWLPDWNLMGQH; IgG binding peptide, pep26) [compound 51]",0.265
17,"52 (DAAWHLGELVWATYYDPETGTWRPDWARMEPM; IgG binding peptide, pep28) [compound 52]",0.25
18,"54 (DAAWHLGELVWATYYDPETGTWQPDWEIMRPF; IgG binding peptide, pep30) [compound 54]",0.258
19,"55 (EAWHLGELVWATYYDPETGTWRPDWSRMSGR; IgG binding peptide, pep11_2) [compound 55]",0.252
